Measurements: patent US20130204009A1, “PROCESS FOR PREPARING BENZOIC ACID ESTERS” (Daiichi Sankyo Company, Limited, priority 2010, published 2013)

Target: T1, GAL4-PPARγ chimeric receptor (ligand-binding domain of human PPARγ) (Homo sapiens, UniProt P37231)
T1 construct: expressed in transfected cells; host or cells: COS-7 (monkey kidney)
Assay: Measurement of PPARγ activation effect/modulator activity (GAL4-PPARγ luciferase reporter assay in COS-7 cells)
Format: cell-based
Settings: for Emax: COS-7, maximum luciferase activity, rosiglitazone positive control = 100%, DMSO control = 0%; for EC50: COS-7 cells transfected with pM-PPARγ and pFR-Luc, concentration giving Emax/2
Protocol: A test was carried out according to the reporter assay method with reference to a report by Kliewer et al. (Journal of Biological Chemistry, 1995, Vol. 270 (22), p. 12953-12956) as a method for measuring the ability of a compound to activate PPARγ (hereinafter PPARγ activation effect/modulator activity). Commercially available reagents and kits were used according to the attached instructions. The details will be shown below.
The ligand-binding domain of human PPARγ (corresponding to about 300 amino acids at the carboxy end) was bound to the DNA-binding domain of the yeast transcription factor GAL4 (corresponding to 147 amino acids at the amino end) with reference to the report by Kliewer et al. to prepare a gene expressing a GAL4-PPARγ receptor.
The plasmid pM-PPARγ obtained by the above operation includes the nucleotide sequence represented by SEQ ID NO: 4 of the Sequence Listing and encodes an amino acid sequence represented by SEQ ID NO: 5 of the Sequence Listing containing amino acids 1 to 147 of the yeast transcription factor GAL4 at the amino end and containing amino acids 175 to 475 of human PPARγ and a stop codon at the carboxy end. The plasmid is a gene that can express a GAL4-PPARγ chimeric receptor in mammalian cells.
The previously acquired plasmid pM-PPARγ and the plasmid pFR-Luc purchased from Stratagene Cloning Systems, Inc. were dissolved in deionised water at a concentration of 1 mg/mL each.
The monkey kidney-derived cell line COS-7 (American Type Culture Collection CRL-1651) was seeded into a 75 cm^2 culture flask and cultured using Dulbecco's modified Eagle's medium containing 10% fetal bovine serum (hereinafter medium) under the conditions of 37° C. and 5% carbon dioxide gas until an approximately 80% confluent state was obtained.
COS-7 cells were transfected with 4.8 micrograms per flask of the plasmid pM-PPARγ and 19.2 μg per flask of the plasmid pFR-Luc using Lipofectamine 2000 transfection reagent (manufactured by Invitrogen Corporation), and the cells were cultured overnight.
On the following day, the cells were harvested by trypsin treatment, suspended in 75 mL of phenol red-free Dulbecco's modified Eagle's medium containing 10% fetal bovine serum, seeded into a white 96-well plate (manufactured by Costar) using the medium in a volume of 95 μL per well, and cultured overnight.
The test compound was dissolved in dimethyl sulfoxide at a concentration of 4 mM. The solution was serially diluted 3.3-fold with dimethyl sulfoxide to prepare solutions of the compound at concentrations up to 400 nM. Dimethyl sulfoxide was prepared for the control group. Rosiglitazone dissolved in dimethyl sulfoxide at a concentration of 4 mM was prepared for the positive control group. They were diluted 20-fold with the medium, and 5 μL of the dilution was added to the wells in which the cells were grown. The concentrations of the test compound treating the cells ranged from 10 μM to 1 nM. After the addition, the cells were cultured overnight.
On the following day, the medium was removed, and Luc Lite (manufactured by PerkinElmer Inc.) was prepared according to the attached document and added at 50 microliters per well. The plate with cells in the Luc Lite was stirred for about 30 minutes. The amount of luminescence in each well was measured as luciferase activity using Analyst (Molecular Devices) for 0.5 second. A dose-dependent curve was drawn.

T1 sequence (P37231 with tags, fused parts or gaps): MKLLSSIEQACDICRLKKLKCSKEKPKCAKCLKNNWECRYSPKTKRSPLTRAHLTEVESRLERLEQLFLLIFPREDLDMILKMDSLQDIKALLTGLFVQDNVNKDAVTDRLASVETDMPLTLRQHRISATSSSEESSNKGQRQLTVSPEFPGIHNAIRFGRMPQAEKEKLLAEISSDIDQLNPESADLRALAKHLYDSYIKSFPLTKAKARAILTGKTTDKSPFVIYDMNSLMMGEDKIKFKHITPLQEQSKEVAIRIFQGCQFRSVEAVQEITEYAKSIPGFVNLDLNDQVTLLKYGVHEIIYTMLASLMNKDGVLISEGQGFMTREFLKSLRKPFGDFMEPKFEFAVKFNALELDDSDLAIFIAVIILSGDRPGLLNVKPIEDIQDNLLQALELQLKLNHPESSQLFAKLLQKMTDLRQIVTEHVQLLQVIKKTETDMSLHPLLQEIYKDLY

Structure (SMILES)	Emax	EC50
Cc1cc(F)cnc1Oc1ccc2nc(COc3cccc(C(=O)O)c3)n(C)c2c1 [Reference Example 8, 3-({6-[(5-Fluoro-3-methylpyridin-2-yl)oxy]-1-methyl-1H-benzimidazol-2-yl}methoxy)benzoic acid]	100%	100000 pM
CCc1cnc(Oc2ccc3nc(COc4cccc(C(=O)O)c4)n(C)c3c2)c(C)c1 [Reference Example 11, 3-({6-[(5-Ethyl-3-methylpyridin-2-yl)oxy]-1-methyl-1H-benzimidazol-2-yl}methoxy)benzoic acid]	82%	260000 pM
CCc1cc(C)cnc1Oc1ccc2nc(COc3cccc(C(=O)O)c3)n(C)c2c1 [Reference Example 12, 3-({6-[(3-Ethyl-5-methylpyridin-2-yl)oxy]-1-methyl-1H-benzimidazol-2-yl}methoxy)benzoic acid]	83%	71000 pM
Cc1cc(C)c(Oc2ccc3nc(COc4cccc(C(=O)O)c4)n(C)c3c2)nc1C [Reference Example 15, 3-({1-Methyl-6-[(3,5,6-trimethylpyridin-2-yl)oxy]-1H-benzimidazol-2-yl}methoxy)benzoic acid]	94%	120000 pM

The remaining molecules from weak to strong by EC50, led by results:

Emax	EC50	Structure (SMILES)
67%	69000 pM	COc1c(C)cnc(Oc2ccc3nc(COc4cccc(C(=O)O)c4)n(C)c3c2)c1C [Reference Example 14, 3-({6-[(4-Methoxy-3,5-dimethylpyridin-2-yl)oxy]-1-methyl-1H-benzimidazol-2-yl}methoxy)benzoic acid]
74%	43000 pM	Cc1cnc(Oc2ccc3nc(COc4cccc(C(=O)O)c4)n(C)c3c2)c(F)c1 [Reference Example 9, 3-({6-[(3-Fluoro-5-methylpyridin-2-yl)oxy]-1-methyl-1H-benzimidazol-2-yl}methoxy)benzoic acid]
